From ChEMBL document CHEMBL4325854, “Synthetic small molecules as anti-biofilm agents in the struggle against antibiotic resistance” (Eur J Med Chem, 2019)
Positions of bridges follow the written chain, without caps; N, C: chain ends. Residues, ends and D or L forms follow the SMILES beside them. Groups on a side chain read outwards from the residue. Chains are numbered I, II in the order given. *: point of attachment. Acetyl(C-α-L-Fucp) = C[C@@H]1O[C@@H](CC(=O)*)[C@@H](O)[C@H](O)[C@@H]1O

Tests used:
[1] = test system: Staphylococcus aureus; assay: Antibiofilm activity against Staphylococcus aureus ATCC 29213; type: functional, organism-based
[2] = test system: Enterococcus faecalis; assay: Antibiofilm activity against Enterococcus faecalis ATCC 29212; type: functional
[3] = test system: Staphylococcus aureus; assay: Antibiofilm activity against Staphylococcus aureus BAA-1026; type: functional
[4] = test system: Staphylococcus aureus; assay: Antibiofilm activity against methicillin-resistant Staphylococcus aureus; type: functional, organism-based; conditions: Staphylococcus aureus
[5] = target: T1, Sortase A (Staphylococcus aureus, UniProt Q9S446); assay: Inhibition of Staphylococcus aureus SrtA
T1 sequence (Q9S446 whole entry): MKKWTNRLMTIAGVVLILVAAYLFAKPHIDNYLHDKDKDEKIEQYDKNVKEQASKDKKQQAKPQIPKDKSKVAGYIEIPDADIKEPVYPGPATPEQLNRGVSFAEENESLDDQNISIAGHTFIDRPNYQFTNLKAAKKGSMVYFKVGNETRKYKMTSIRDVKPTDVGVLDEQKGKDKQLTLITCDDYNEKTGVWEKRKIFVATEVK

[6] = test system: Acinetobacter baumannii; assay: Antibiofilm activity against Acinetobacter baumannii preformed biofilms; type: functional, organism-based
[7] = test system: Pseudomonas aeruginosa; assay: Antibiofilm activity against Pseudomonas aeruginosa PAO1 assessed as inhibition of biofilm dispersion; type: functional, organism-based
[8] = test system: Pseudomonas aeruginosa; assay: Antibiofilm activity against Pseudomonas aeruginosa PA14 assessed as inhibition of biofilm dispersion; type: functional, organism-based
[9] = test system: Staphylococcus aureus; assay: Antibiofilm activity against Staphylococcus aureus at 100 uM relative to control; type: functional
[10] = test system: Staphylococcus aureus; assay: Synergistic antibacterial activity against methicillin-resistant Staphylococcus aureus assessed as fold reduction in penicillin G MIC; type: functional
[11] = test system: Staphylococcus aureus; assay: Synergistic antibacterial activity against methicillin-resistant Staphylococcus aureus assessed as fold reduction in oxacillin MIC; type: functional
[12] = test system: Staphylococcus aureus; assay: Antibiofilm activity against methicillin-resistant Staphylococcus aureus ATCC BAA-44; type: functional, organism-based
[13] = test system: Pseudomonas aeruginosa; assay: Antibiofilm activity against Pseudomonas aeruginosa PA14; type: functional, organism-based
[14] = test system: Pseudomonas aeruginosa; assay: Antibiofilm activity against Pseudomonas aeruginosa PAO1; type: functional, organism-based
[15] = target: Fucose-binding lectin PA-IIL (Pseudomonas aeruginosa (strain ATCC 15692 / DSM 22644 / CIP 104116 / JCM14847 / LMG 12228 / 1C / PRS 101 / PAO1), UniProt Q9HYN5); assay: Inhibition of biotinylated polymeric fucose binding to Pseudomonas aeruginosa LecB expressed in Escherichia coli BL21(DE3) preincubated for 1 hr followed by biotinylated polymeric fucose addition and measured after 1 hr
[16] = test system: Pseudomonas aeruginosa; assay: Antibiofilm activity against Pseudomonas aeruginosa; type: functional, organism-based
[17] = test system: Staphylococcus aureus; assay: Antibiofilm activity against methicillin-resistant Staphylococcus aureus isolate 2; type: functional
[18] = test system: Staphylococcus aureus; assay: Antibiofilm activity against methicillin-resistant Staphylococcus aureus BAA-1707; type: functional

Fucose-binding lectin PA-IIL, sequence (Q9HYN5 whole entry): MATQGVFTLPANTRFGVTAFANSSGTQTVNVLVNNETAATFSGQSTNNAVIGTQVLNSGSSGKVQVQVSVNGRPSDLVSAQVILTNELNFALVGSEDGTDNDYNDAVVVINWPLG

**Q.** With `Cc1cc(C(=O)/C(=N\Nc2ccc(Cl)c(Cl)c2)C(=O)O)no1` as the molecule, how does the IC50 [1] read?
**A.** The IC50 was 0.8 µM.

**Q.** `c1ccc(-c2nc(-c3ccc(-c4nc(-c5cccc6ccccc56)cs4)cc3)cs2)cc1` was tested. Which MBEC [2] did it give?
**A.** Its MBEC is 4 µg/mL.

**Q.** And the MBEC [3]?
**A.** The MBEC was 250 µg/mL.

**Q.** Which IC50 [4] does the source give for `O=C(Oc1c(Br)cc(Br)c2nc3ccccc3nc12)c1ccco1` here?
**A.** The IC50 was 1.4 to 2.9 µM.

**Q.** Which IC50 [5] does the source give for `CCOC(=O)/C(=N/Nc1ccccc1)C(C)=O` here?
**A.** Its IC50 is 192 µM.

**Q.** Which IC50 [4] does the source give for `CCCc1ccc(-c2[nH]c(N)nc2CCCCCc2cn(C/C(C)=C/c3ccccc3)nn2)cc1` here?
**A.** Its IC50 is 1.42 µM.

**Q.** What about the IC50 [6] of the same molecule?
**A.** The IC50 was 11.3 µM.

**Q.** Which results are given for `CCCCCCCCNC(=O)CCCc1c[nH]c(N)n1`?
**A.** IC50 [7]: 18.4 µM; IC50 [8]: 13.3 µM

**Q.** What does the source list for `CC(=O)/C(=N\Nc1ccccc1)C(=O)O`?
**A.** Activity [9]: 39.2 - 68.3%; IC50 [5]: 50 to 92 µM

**Q.** How did the Activity [9] turn out when `CC(=O)/C(C#N)=N\Nc1ccccc1` was run?
**A.** Its Activity is 39.2 - 68.3%.

**Q.** And the IC50 [5]?
**A.** Its IC50 is 50 to 92 µM.

**Q.** `CCCCCCCc1ccc(NC(=O)CCn2cc(C[C@@]34CNC[C@@H]3Nc3ccccc34)nn2)cc1` was tested. Which IC50 [4] did it give?
**A.** Its IC50 is 2.8 µM.

**Q.** How did the IC50 [4] turn out when `CCCCc1ccc(C(=O)NCCn2cc(CCCCc3[nH]c(N)nc3-c3ccc4c(c3)OCO4)nn2)cc1` was run?
**A.** The IC50 was 3.7 µM.

**Q.** `CCCCCCc1ccc(NC(=O)CCn2cc(C[C@@]34CNC[C@@H]3Nc3ccccc34)nn2)cc1` was tested. Which IC50 [4] did it give?
**A.** The IC50 was 3.4 µM.

**Q.** How did the IC50 [4] turn out when `CCCCCc1cccc(C(=O)NCCNC(=O)CCCCCc2cnc(N)[nH]2)c1` was run?
**A.** The IC50 was 6.5 µg/mL.

**Q.** What about the “fold change (FC)” value [10] of the same molecule?
**A.** The value was 16.

**Q.** What about the “fold change (FC)” value [11] of the same molecule?
**A.** The value was 64.

**Q.** What does the source list for `CCCCOc1ccc(Br)c(/C=C(\C)Cn2cc(CCCCCc3c[nH]c(N)n3)nn2)c1F`?
**A.** EC50 [4]: 4.5 to 9.8 µM; EC50 [6]: 44.7 to 59.6 µM

**Q.** With `c1ccc(-c2csc(-c3ccc(-c4csc(-c5ccccc5)n4)cc3)n2)cc1` as the molecule, how does the MBEC [2] read?
**A.** The MBEC was 2 µg/mL.

**Q.** And the MBEC [3]?
**A.** The MBEC was 1000 µg/mL.

**Q.** What does the source list for `Cc1sc(-c2ccc(-c3csc(-c4ccccc4)n3)cc2)nc1-c1ccccc1`?
**A.** MBEC [2]: 4 µg/mL; MBEC [3]: 1000 µg/mL

**Q.** How did the IC50 [1] turn out when `CCOC(=O)/C(=N/Nc1ccc(Cl)c(Cl)c1)C(=O)c1cc(C)nn1CC` was run?
**A.** The IC50 was 1.7 µM.

**Q.** `O=C1NC(C(Cl)(Cl)Cc2ccccc2)O/C1=C\c1ccc(C(F)(F)F)cc1` (stereo not given) was tested. Which IC50 [12] did it give?
**A.** The IC50 was 1.2 µM.

**Q.** Which results are given for `COc1ccc(-c2csc(-c3ccc(-c4csc(-c5ccccc5)n4)cc3)n2)cc1`?
**A.** MBEC [2]: 4 µg/mL; MBEC [3]: 62 µg/mL

**Q.** With `CCCCc1ccc(C(=O)NCCn2cc(CCCCc3[nH]c(N)nc3-c3cnc4ccccc4c3)nn2)cc1` as the molecule, how does the IC50 [4] read?
**A.** Its IC50 is 4.2 µM.

**Q.** For `CCCCCCNC(=O)CCCc1c[nH]c(N)n1`, which IC50 [7] is on record?
**A.** Its IC50 is 32.7 µM.

**Q.** What about the IC50 [8] of the same molecule?
**A.** The IC50 was 39.9 µM.

**Q.** Which results are given for `CC(=O)/C(=N\Nc1ccc(Cl)c(Cl)c1)C(=O)O`?
**A.** Activity [9]: 39.2 - 68.3%; IC50 [5]: 50 to 92 µM

**Q.** Which results are given for `NC(=O)c1cc(-c2csc(-c3ccc(-c4csc(-c5ccccc5)n4)cc3)n2)ccc1O`?
**A.** MBEC [2]: 8 µg/mL; MBEC [3]: 250 µg/mL

**Q.** Which IC50 [13] does the source give for `CCCCCCCCCCCCNC(=O)CCCc1c[nH]c(N)n1` here?
**A.** The IC50 was 2.26 µM.

**Q.** And the IC50 [7]?
**A.** The IC50 was 2.8 µM.

**Q.** And the IC50 [14]?
**A.** The IC50 was 2.84 µM.

**Q.** What about the IC50 [8] of the same molecule?
**A.** The IC50 was 2.26 µM.

**Q.** How did the IC50 [4] turn out when `COC(=O)Oc1c(Br)cc(Br)c2nc3ccccc3nc12` was run?
**A.** The IC50 was 1.4 to 2.9 µM.

**Q.** How did the IC50 [15] turn out when `CC[C@H](C)[C@H](NC(=O)[C@H](Cc1cnc[nH]1)NC(=O)[C@H](CCCCNC(=O)[C@@H](NC(=O)[C@H](CCCCN)NC(=O)[C@H](Cc1ccccc1)NC(=O)[C@H](CCCCNC(=O)[C@H](CC(C)C)NC(=O)[C@@H]1CCCN1C(=O)[C@H](CCCCN)NC(=O)C[C@@H]1O[C@@H](C)[C@@H](O)[C@@H](O)[C@@H]1O)NC(=O)[C@H](CC(C)C)NC(=O)[C@@H]1CCCN1C(=O)[C@H](CCCCN)NC(=O)C[C@@H]1O[C@@H](C)[C@@H](O)[C@@H](O)[C@@H]1O)[C@@H](C)CC)NC(=O)[C@@H](NC(=O)[C@H](CCCCN)NC(=O)[C@H](Cc1ccccc1)NC(=O)[C@H](CCCCNC(=O)[C@H](CC(C)C)NC(=O)[C@@H]1CCCN1C(=O)[C@H](CCCCN)NC(=O)C[C@@H]1O[C@@H](C)[C@@H](O)[C@@H](O)[C@@H]1O)NC(=O)[C@H](CC(C)C)NC(=O)[C@@H]1CCCN1C(=O)[C@H](CCCCN)NC(=O)C[C@@H]1O[C@@H](C)[C@@H](O)[C@@H](O)[C@@H]1O)[C@@H](C)CC)C(N)=O` (I: {Acetyl(C-α-L-Fucp)}-KPLK([Leu-Pro-Lys-Acetyl(C-α-L-Fucp)])FKIKHI-NH2 / II: {Acetyl(C-α-L-Fucp)}-KPLK([Leu-Pro-Lys-Acetyl(C-α-L-Fucp)])FKI; amide I:8-II:C) was run?
**A.** The IC50 was 0.14 µM.

**Q.** And the IC50 [16]?
**A.** Its IC50 is 10 µM.

**Q.** What does the source list for `Cc1ccc2c(Br)cc(Br)c(O)c2n1` [BROQUINALDOL]?
**A.** MBEC [17]: 188 µM; MBEC [18]: 93 µM
